Assay results published in ChEMBL document CHEMBL1155740, “Dicerandrols, new antibiotic and cytotoxic dimers produced by the fungus Phomopsis longicolla isolated from an endangered mint” (2001).
Calls of active or inactive are those of the source. No cut-off for these calls is given here.

How the values were obtained:
A549 = assay: Cytotoxicity against human A549 cells after 72 hrs; assay type: functional
HCT-116 = assay: Cytotoxicity against human HCT116 cells after 72 hrs; assay type: functional
Geotrichum candidum = assay: Antifungal activity against Geotrichum candidum at 300 ug/disk; assay type: functional, organism-based
Bacillus subtilis [1] = assay: Antibacterial activity against Bacillus subtilis at 100 ug/disk after overnight incubation by agar diffusion method; assay type: functional; conditions: read-out: IZ
Saccharomyces cerevisiae = assay: Antifungal activity against Saccharomyces cerevisiae at 300 ug/disk; assay type: functional, organism-based
Staphylococcus aureus [2] = assay: Antibacterial activity against Staphylococcus aureus at 100 ug/disk after overnight incubation by agar diffusion method; assay type: functional; conditions: read-out: IZ
Staphylococcus aureus [3] = assay: Antibacterial activity against Staphylococcus aureus at 30 ug after overnight incubation by agar diffusion method; assay type: functional; conditions: read-out: IZ
Bacillus subtilis [4] = assay: Antibacterial activity against Bacillus subtilis at 30 ug after overnight incubation by agar diffusion method; assay type: functional, organism-based

Compound | IC100 (A549) [µg/mL] | IC100 (HCT-116) [µg/mL] | Activity (Geotrichum candidum) | zone of inhibition at 100 µg/disc (Bacillus subtilis [1]) [mm] | Activity (Saccharomyces cerevisiae) | zone of inhibition at 100 µg/disc (Staphylococcus aureus [2]) [mm] | zone of inhibition at 30 µg/disc (Staphylococcus aureus [3]) [mm] | inhibition zone (IZ) (Bacillus subtilis [4]) [mm]
CC(=O)O[C@@H]1[C@H](C)CC(O)=C2C(=O)c3c(ccc(-c4ccc5c(c4O)C(=O)C4=C(O)C[C@@H](C)[C@@H](OC(C)=O)[C@@]4(CO)O5)c3O)O[C@@]21CO [DICERANDROL A] | 7 | 7 | inactive | 11 | inactive | 10.8 | – | –
CC(=O)OC[C@]12Oc3ccc(-c4ccc5c(c4O)C(=O)C4=C(O)C[C@@H](C)[C@@H](OC(C)=O)[C@@]4(CO)O5)c(O)c3C(=O)C1=C(O)C[C@@H](C)[C@H]2OC(C)=O [DICERANDROL B] | 1.8 | 1.8 | inactive | 9.5 | inactive | 8.5 | – | –
CC(=O)OC[C@]12Oc3ccc(-c4ccc5c(c4O)C(=O)C4=C(O)C[C@@H](C)[C@@H](OC(C)=O)[C@@]4(COC(C)=O)O5)c(O)c3C(=O)C1=C(O)C[C@@H](C)[C@H]2OC(C)=O [DICERANDROL C] | 1.8 | 7 | inactive | 8 | inactive | 7 | – | –
COc1cc([C@@H]2c3cc4c(cc3[C@@H](O[C@@H]3O[C@@H]5CO[C@@H](C)O[C@H]5[C@H](O)[C@H]3O)[C@H]3COC(=O)[C@H]23)OCO4)cc(OC)c1O [ETOPOSIDE] | 30 | 125 | – | – | – | – | – | –
NC[C@@H]1O[C@H](O[C@H]2[C@@H](O)[C@H](O[C@@H]3[C@@H](O)[C@H](N)C[C@H](N)[C@H]3O[C@H]3O[C@H](CN)[C@@H](O)[C@H](O)[C@H]3N)O[C@@H]2CO)[C@H](N)[C@@H](O)[C@@H]1O [FRAMYCETIN] | – | – | – | – | – | – | 9 | –
NYSTATIN | – | – | – | – | – | – | – | 12
